In patent US20230355645A1, “PHARMACEUTICAL COMPOSITION” (priority 2020, published 2023):

Columns and labels:
[1] = system: Ishikawa endometrial cells; assay: MTT test, toxicity of CBD towards Ishikawa; assay type: cell-based, human; settings: CBD 3 and 5 μmol/l, 24 h incubation
Protocol: (§1) Human Caco-2 intestinal cells and Ishikawa endometrial cells were used in an in vitro study of the effect of cannabidiol (CBD) and sodium hyaluronate. In the first phase of the experiment, the safe concentration of CBD was determined based on the results of MTT measurements, a test for the reduction of 3-(4,5-dimethylthiazol-2-yl)-2,5-diphenyltetrazolium bromide (MTT) to the corresponding formazan. The test was performed according to M. D. Maines, L. G. Costa, D. J. Reed, et al. Current protocols in toxicology. New York: John Wiley & Sons. (1998).
(§2) Cells seeded in a 96-well plate at a concentration of 3×10^4 cells/ml, 100 μl/well, which were allowed to adhere for 24 hours, were subsequently incubated for 24 hours with CBD in a concentration range of 100 to 0.78 μmol/l dissolved in serum-free culture medium containing MEM (Minimum Essential Medium Eagle) supplemented by 2 mM glutamine, 1% NEAA (Non essential Amino Acid), and penicillin 100 IU/ml and streptomycin 100 ug/ml. At the end of the incubation period, 100 μl of MTT mixture (0.5 mg/mL in serum-free culture medium) was added for the period of 2 hours. At the end of the incubation period and aspiration of the MTT mixture, 100 μl of DMSO with NH3 (1%, v/v) were added. The absorbance was measured at 540 nm (INFINITE M200 PRO Tecan, Schoeller). […]

Caco-2 cells = assay: MTT test, toxicity of CBD towards Caco-2; assay type: cell-based, human; settings: CBD 3 and 5 μmol/l, 24 h incubation
Protocol: as §1, §2

[2] = especially in solution by exposure to light, atmospheric oxygen and acidic pH; cited from earlier work
[3] = system: IL-6 production by Ishikawa cells; assay: Production of IL-6 by Ishikawa cells following incubation with LPS (ELISA); assay type: cell-based, human; settings: after LPS induction, both doses (3 and 5 μmol/l)
Protocol: (§3) Cells (Caco-2, Ishikawa) were seeded in 6-well plates in culture medium containing MEM (Minimum Essential Medium Eagle) supplemented by 2 mM glutamine, 1% NEAA (Non essential Amino Acid), 10% FBS (Fetal Bovine Serum), penicillin 100 IU/ml and streptomycin 100 ug/ml and allowed to adhere for a minimum of 24 hours and then allowed to grow to confluence. They were then rinsed with PBS (2 ml) and treated with LPS (E. coli) 2 μg/ml in serum-free culture medium, 2 ml per well 3 times after 3 hours. After the last 3 hours of incubation, the test substances (CBD, CBD+HA in serum-free culture medium) were added to the cells and the samples were incubated for another 22 hours. The culture medium was then removed, frozen at −80° C. for downstream determination of pro-inflammatory cytokines (IL-6 and IL-8) by ELISA (Human ELISA Development Kit, Cat. Nos. 900-K16 and 900-K18, PeproTech, Baria, Czech Republic). The results are expressed relative to a control K (cells cultured only with serum-free culture medium), as a percentage of the control, expressed as mean±SEM. The measurement was performed in three independent experiments. KL are cells cultured with LPS. Testing was performed in triplicates.

[4] = system: IL-8 production by Caco-2 cells; assay: Production of IL-8 by Caco-2 cells following incubation with LPS (ELISA); assay type: cell-based, human; settings: Caco-2, after LPS induction, higher dose of CBD
Protocol: as §3

[5] = system: IL-6 production by Caco-2 cells; assay: Production of IL-6 by Caco-2 cells following incubation with LPS (ELISA); assay type: cell-based, human; settings: Caco-2, after LPS induction, both doses (3 and 5 μmol/l)
Protocol: as §3

[6] = system: IL-6 production by Caco-2 cells; settings: Caco-2 model, Couch et al. Clin. Sci. 2017; cited from earlier work
[7] = cited from earlier work
[8] = system: IL-8 production by Ishikawa cells; assay: Production of IL-8 by Ishikawa cells following incubation with LPS (ELISA); assay type: cell-based, human; settings: after LPS induction, both doses of CBD
Protocol: as §3

[9] = system: Balb/c 3T3-L1 mouse fibroblasts; assay: Cytotoxicity assay, neutral red incorporation; assay type: cell-based; settings: 24 h
Protocol: Balb/c 3T3-L1 mouse fibroblasts (ECACC 86052701) were used in the cytotoxicity assay. The cells were cultured in D-MEM medium (Dulbecco's modification of Eagle's essential medium, Lonza) containing antibiotics (penicillin 100 IU/ml, streptomycin 100 ug/ml), enriched with 10% inactivated calf serum, pH 7.2.
Suppositories prepared according to Example 1 were tested. The positive control (PK) was sodium lauryl sulfate (SLS), the cell control was serum-free culture medium.
The suppository extract was prepared in the ratio of 0.2 g of sample per 1 ml of extracting agent (serum-free D-MEM) according to ČSN EN ISO 10993-12 (2012). The extraction was performed for 24 hours at 37° C., in a closed culture flask under aseptic conditions according to ČSN EN ISO 10993-5 (2012). The resulting 100% extract was further diluted with serum-free culture medium.
Flat bottom tissue culture plates of 8×12 wells were used to culture the cells. The cells were suspended at a concentration of 10^5 cells in 1 ml of the culture medium, inoculating 0.1 ml of the suspension into 1 well. Culture conditions 37° C., 7.5% CO2. Pre-cultivation to obtain a cell culture monolayer was performed 24 hours before exposure to the test material. The cultures were established in quadruplets for the test extracts and for the controls. After 24 hours of precultivation, the culture medium and 0.2 ml of the extract from the test sample, or its serial dilution, respectively. This was followed by culture for 24 hours at 37° C., 7.5% CO2 and staining with neutral red (0.2 ml of neutral red solution per well, incubation for 3 hours, ethanol/acetic acid fixation solution). After completion of the culture, cytotoxicity was determined quantitatively (fluorimetrically) based on the incorporation of neutral red as a vital dye.
The fluorimetric method for determining cytotoxicity is based on the incorporation of a vital dye into living cells and the detection of fluorescence in an excitation (530 nm) and emission filter (590 nm) system using cold light. The degree of cytotoxicity is expressed in % of the detected fluorescence in the culture containing the test extract relative to the control culture in the absence of the test extract. Fluorescence is detected in FSU units of fluorescence intensity. For quantification, the viability of the culture is calculated as follows:
culture viability (%)=(average FSU of the test sample−average FSU of the blank)/(average FSU of the control−average FSU of the blank)
The mean fluorescence values for each group represent the average fluorescence value from all four wells after subtracting the average fluorescence value of the eight wells with fixation solution (blank). The control is serum-free culture medium.

human volunteers = settings: in vivo

C=C(C)[C@@H]1CCC(C)=C[C@H]1c1c(O)cc(CCCCC)cc1O [CBD, Cannabidiol]
toxicity by MTT values [1]: sub-toxic | toxicity by MTT values (Caco-2 cells): sub-toxic | stability [2]: prone to degradation | IL-6 levels [3]: significant decrease | IL-8 concentration [4]: at the same level | IL-6 levels [5]: significant decrease | increase in IL-6 concentration compared to the original value after induction of inflammation [6]: more than 70% | log P [7]: 6-7 | IL-8 levels [8]: decrease

CCCCCCCCCCCCOS(=O)(=O)[O-].[Na+] [PK-SLS, sodium lauryl sulfate]
Mean fluorescence (FSU) ([9]; Test 1, 1 μg/ml): 2743.4 FSU | Relative to control % ([9]; Test 1, 1 μg/ml): 98.8% | Mean fluorescence (FSU) ([9]; Test 1, 10 μg/ml): 891.1 FSU | Relative to control % ([9]; Test 1, 10 μg/ml): 32.1% | Mean fluorescence (FSU) ([9]; Test 1, 20 μg/ml): 113.9 FSU | Relative to control % ([9]; Test 1, 20 μg/ml): 16.0% | Mean fluorescence (FSU) ([9]; Test 2, 1 μg/ml): 3187.8 FSU | Relative to control % ([9]; Test 2, 1 μg/ml): 98.9% | Mean fluorescence (FSU) ([9]; Test 2, 10 μg/ml): 542.5 FSU | Relative to control % ([9]; Test 2, 10 μg/ml): 16.8% | Mean fluorescence (FSU) ([9]; Test 2, 20 μg/ml): 326.3 FSU | Relative to control % ([9]; Test 2, 20 μg/ml): 10.1% | Total number of reactions, Reaction yes/no (human volunteers; human): 30/30 | Reaction yes/no (human volunteers): YES
